Source: US20240208937A1, “Compounds and Their Use for Treatment of Hemoglobinopathies” (Bristol-Myers Squibb Company, priority 2022, published 2024)
pEC50: −log10 of the molar value.

Experiments:
Assay type in all cases: cell-based
[1] = target: ZBTB7A (Zinc Finger And BTB Domain Containing 7A) (Homo sapiens (Human), UniProt O95365+Q96SW2); experiment: HUDEP-2 ZBTB7A HiBiT degradation assay; details: HUDEP-2 ZBTB7A HiBiT cells, 24 hours treatment, luminescence; for DC50: read-out: ZBTB7A EC50
Procedure, shortened: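 HUDEP-2 cells carrying HiBiT-tagged ZBTB7A, grown 48 h in IMDM with EPO, SCF, insulin, transferrin, heparin, dox and 5% human plasma, then seeded at 1.0×10^6 cells/ml on pre-dispensed compound (10 concentrations, 10–0.0005 μM) for 24 h at 37 °C. Lytic HiBiT luminescence, DMSO-normalised, gave EC50 and Y-min.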

[2] = target: WIZ (Widely interspaced zinc finger) (Homo sapiens (Human), UniProt O95785+Q96SW2); experiment: HUDEP-2 WIZ HiBiT degradation assay; details: HUDEP-2 WIZ HiBiT cells, 24 hours treatment, luminescence; for DC50: read-out: WIZ EC50
Procedure, shortened: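 HiBiT-tagged WIZ HUDEP-2 cells were seeded at 1.0×10^6 cells/ml in supplemented StemSpan SFEM II with doxycycline and treated 24 h at 37 °C. Remaining tagged protein was read by Nano-Glo HiBiT lytic luminescence. EC50 and Y-min were fitted after DMSO normalization across 10 concentrations, 10 to 0.0005 μM.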

[3] = system: fetal hemoglobin (HbF) in GCSF-mobilized human CD34+ cells; experiment: HbF Induction Assay; details: 168 h; compound 1 μM, 7 days, erythroid-differentiated human CD34+ cells, flow cytometry; DMSO baseline 15% HbF positive cells
Procedure, shortened: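 GCSF-mobilized human CD34+ cells were expanded for 7 days with SCF, Flt3-L, IL-3 and EPO, then differentiated with SCF and EPO while dosed at 1 μM (0.1% DMSO), with compound refreshed every 2 days for 7 days. Viability and % HbF-positive cells and MFI were measured by flow cytometry with anti-HbF staining, relative to DMSO controls.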

Sequence of ZBTB7A (Zinc Finger And BTB Domain Containing 7A) (O95365 whole entry, the tested form may be a part): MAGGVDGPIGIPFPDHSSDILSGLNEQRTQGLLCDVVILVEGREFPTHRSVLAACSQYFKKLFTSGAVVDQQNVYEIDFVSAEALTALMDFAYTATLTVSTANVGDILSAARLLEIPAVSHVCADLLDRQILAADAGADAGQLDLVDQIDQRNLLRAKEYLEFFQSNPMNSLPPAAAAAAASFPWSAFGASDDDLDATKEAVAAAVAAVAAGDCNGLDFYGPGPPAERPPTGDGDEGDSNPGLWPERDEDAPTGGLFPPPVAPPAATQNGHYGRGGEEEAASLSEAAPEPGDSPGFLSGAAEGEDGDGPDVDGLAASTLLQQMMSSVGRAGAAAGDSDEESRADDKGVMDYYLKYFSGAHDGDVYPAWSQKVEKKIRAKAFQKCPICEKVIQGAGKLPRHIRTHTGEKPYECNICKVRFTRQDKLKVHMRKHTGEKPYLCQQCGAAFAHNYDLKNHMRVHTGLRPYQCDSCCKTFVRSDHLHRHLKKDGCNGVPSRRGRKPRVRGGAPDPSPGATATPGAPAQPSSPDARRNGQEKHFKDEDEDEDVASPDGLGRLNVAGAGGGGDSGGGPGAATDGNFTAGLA
Sequence of ZBTB7A (Zinc Finger And BTB Domain Containing 7A) (Q96SW2 whole entry, the tested form may be a part): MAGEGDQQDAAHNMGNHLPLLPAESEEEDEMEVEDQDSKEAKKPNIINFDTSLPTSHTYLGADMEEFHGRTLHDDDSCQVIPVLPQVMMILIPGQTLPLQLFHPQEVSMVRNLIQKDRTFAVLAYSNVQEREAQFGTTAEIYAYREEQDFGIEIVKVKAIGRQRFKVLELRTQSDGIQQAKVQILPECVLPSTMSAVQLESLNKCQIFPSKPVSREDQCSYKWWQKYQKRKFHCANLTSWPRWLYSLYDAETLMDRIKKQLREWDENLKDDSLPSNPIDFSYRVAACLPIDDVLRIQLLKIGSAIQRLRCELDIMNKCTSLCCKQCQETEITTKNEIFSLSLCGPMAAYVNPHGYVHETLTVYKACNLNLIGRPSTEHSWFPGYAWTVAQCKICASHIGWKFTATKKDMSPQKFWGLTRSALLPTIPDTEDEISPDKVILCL
Sequence of ZBTB7A (Zinc Finger And BTB Domain Containing 7A) (Q16531 whole entry partner, the tested form may be a part): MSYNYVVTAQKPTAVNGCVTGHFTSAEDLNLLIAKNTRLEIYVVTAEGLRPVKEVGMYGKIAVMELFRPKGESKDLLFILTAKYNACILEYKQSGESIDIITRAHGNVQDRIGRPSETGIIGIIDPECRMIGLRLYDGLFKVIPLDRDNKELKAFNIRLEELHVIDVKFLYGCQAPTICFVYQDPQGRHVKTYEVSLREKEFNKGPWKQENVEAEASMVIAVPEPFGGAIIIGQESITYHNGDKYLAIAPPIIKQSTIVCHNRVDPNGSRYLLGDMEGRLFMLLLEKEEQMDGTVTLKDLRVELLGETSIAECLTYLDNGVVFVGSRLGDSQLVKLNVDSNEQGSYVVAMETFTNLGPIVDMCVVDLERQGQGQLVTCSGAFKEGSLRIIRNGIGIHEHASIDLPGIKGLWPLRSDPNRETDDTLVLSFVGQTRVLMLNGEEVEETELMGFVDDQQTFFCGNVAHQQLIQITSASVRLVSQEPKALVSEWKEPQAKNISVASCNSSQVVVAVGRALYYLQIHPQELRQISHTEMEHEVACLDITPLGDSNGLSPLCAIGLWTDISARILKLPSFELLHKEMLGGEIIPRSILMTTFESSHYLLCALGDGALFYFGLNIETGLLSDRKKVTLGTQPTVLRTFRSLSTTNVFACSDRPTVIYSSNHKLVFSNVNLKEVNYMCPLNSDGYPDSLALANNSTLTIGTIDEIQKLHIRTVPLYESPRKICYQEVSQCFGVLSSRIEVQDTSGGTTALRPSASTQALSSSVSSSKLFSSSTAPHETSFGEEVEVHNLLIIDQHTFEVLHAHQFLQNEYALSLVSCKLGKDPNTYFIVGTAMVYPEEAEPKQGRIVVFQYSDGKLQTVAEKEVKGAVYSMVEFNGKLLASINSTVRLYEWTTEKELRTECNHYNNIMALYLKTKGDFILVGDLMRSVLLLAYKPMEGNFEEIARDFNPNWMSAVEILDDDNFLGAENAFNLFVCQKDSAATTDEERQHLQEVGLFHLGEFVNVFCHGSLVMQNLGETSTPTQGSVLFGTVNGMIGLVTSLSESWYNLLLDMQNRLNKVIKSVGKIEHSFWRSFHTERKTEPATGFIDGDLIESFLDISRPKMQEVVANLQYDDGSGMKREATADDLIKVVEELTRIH
Sequence of WIZ (Widely interspaced zinc finger) (O95785 whole entry): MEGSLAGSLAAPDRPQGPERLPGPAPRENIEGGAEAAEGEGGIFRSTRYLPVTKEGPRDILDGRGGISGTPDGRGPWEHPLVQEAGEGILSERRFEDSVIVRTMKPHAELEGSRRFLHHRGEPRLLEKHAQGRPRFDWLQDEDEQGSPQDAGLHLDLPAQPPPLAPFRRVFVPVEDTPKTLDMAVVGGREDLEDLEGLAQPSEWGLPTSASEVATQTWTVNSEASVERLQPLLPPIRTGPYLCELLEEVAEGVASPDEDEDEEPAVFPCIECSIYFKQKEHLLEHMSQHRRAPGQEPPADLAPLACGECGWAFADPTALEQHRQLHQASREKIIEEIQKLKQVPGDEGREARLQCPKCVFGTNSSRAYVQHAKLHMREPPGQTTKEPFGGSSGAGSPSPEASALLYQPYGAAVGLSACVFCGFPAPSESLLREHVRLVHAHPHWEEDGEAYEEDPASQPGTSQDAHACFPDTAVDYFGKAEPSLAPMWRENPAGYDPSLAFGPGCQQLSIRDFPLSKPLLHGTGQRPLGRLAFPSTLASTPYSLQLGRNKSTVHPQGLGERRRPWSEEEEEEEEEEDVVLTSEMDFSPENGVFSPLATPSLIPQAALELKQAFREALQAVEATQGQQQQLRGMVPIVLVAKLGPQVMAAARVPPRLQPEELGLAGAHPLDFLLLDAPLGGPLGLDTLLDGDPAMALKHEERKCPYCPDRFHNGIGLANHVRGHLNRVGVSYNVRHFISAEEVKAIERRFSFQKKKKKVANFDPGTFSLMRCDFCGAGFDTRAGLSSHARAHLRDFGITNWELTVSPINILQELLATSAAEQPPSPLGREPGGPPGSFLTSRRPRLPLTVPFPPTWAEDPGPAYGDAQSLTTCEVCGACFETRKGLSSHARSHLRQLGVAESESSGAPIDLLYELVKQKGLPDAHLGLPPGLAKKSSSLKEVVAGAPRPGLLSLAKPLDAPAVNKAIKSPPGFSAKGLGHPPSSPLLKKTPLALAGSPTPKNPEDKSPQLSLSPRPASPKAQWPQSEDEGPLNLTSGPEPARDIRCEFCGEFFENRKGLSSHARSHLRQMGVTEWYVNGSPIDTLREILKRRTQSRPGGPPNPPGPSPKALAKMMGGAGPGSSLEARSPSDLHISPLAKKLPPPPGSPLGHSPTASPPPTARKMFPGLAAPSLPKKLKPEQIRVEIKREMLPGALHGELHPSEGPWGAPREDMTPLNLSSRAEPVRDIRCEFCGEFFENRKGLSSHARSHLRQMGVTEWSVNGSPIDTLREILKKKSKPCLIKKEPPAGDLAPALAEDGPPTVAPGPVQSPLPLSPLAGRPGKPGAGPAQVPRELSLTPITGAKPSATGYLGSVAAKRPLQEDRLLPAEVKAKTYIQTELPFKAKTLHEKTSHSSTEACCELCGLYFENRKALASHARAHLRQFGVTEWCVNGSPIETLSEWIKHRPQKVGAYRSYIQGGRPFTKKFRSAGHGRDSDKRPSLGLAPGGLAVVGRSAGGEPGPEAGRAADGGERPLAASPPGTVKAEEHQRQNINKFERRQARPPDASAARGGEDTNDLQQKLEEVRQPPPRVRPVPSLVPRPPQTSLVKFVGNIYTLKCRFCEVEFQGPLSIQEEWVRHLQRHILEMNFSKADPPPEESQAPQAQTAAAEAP
Sequence of WIZ (Widely interspaced zinc finger) (Q96SW2 whole entry): as the sequence (Q96SW2 whole entry, the tested form may be a part) above
Sequence of WIZ (Widely interspaced zinc finger) (Q16531 whole entry partner): as the sequence (Q16531 whole entry partner, the tested form may be a part) above

SMILES	pEC50 [1]	DC50 [2]	activation at 1 µM [3]	DC50 [1]	pEC50 [2]
Cc1ncncc1Oc1ccc2c(cnn2C)c1Nc1cccc2c1C(=O)N(C1CCC(=O)NC1=O)C2=O (stereo not drawn) [Compound 26, 2-(2,6-dioxopiperidin-3-yl)-4-((1-methyl-5-((4-methylpyrimidin-5-yl)oxy)-1H-indazol-4-yl)amino)isoindoline-1,3-dione]	< 7.00	10 to 100 nM	< 33%		
Cn1ncc2cc(Oc3ccccc3)c(Nc3cccc4c3C(=O)N(C3CCC(=O)NC3=O)C4=O)cc21 (stereo not drawn) [Compound 27, 2-(2,6-dioxopiperidin-3-yl)-4-((1-methyl-5-phenoxy-1H-indazol-6-yl)amino)isoindoline-1,3-dione]	< 7.00	10 to 100 nM	< 33%		
Cn1ncc2cc(Nc3cccc4c3C(=O)N(C3CCC(=O)NC3=O)C4=O)c(-c3cccc(C(F)(F)F)c3)cc21 (stereo not drawn) [Compound 28, 2-(2,6-dioxopiperidin-3-yl)-4-((1-methyl-6-(3-(trifluoromethyl)phenyl)-1H-indazol-5-yl)amino)isoindoline-1,3-dione]	< 7.00	> 100 nM	< 33%		
Cc1nccc(-c2cc3c(cnn3C)cc2Nc2cccc3c2C(=O)N(C2CCC(=O)NC2=O)C3=O)c1C (stereo not drawn) [Compound 29, 4-((6-(2,3-dimethylpyridin-4-yl)-1-methyl-1H-indazol-5-yl)amino)-2-(2,6-dioxopiperidin-3-yl)isoindoline-1,3-dione]	< 7.00	10 to 100 nM	< 33%		
COc1cc(-c2ccccc2)c(Nc2cccc3c2C(=O)N(C2CCC(=O)NC2=O)C3=O)cn1 (stereo not drawn) [Compound 30, 2-(2,6-dioxopiperidin-3-yl)-4-((6-methoxy-4-phenylpyridin-3-yl)amino)isoindoline-1,3-dione]		10 to 100 nM	< 33%	30 to 100 nM	
CN(C)C1CCc2ccc(Nc3cccc4c3C(=O)N([C@@]3(C)CCC(=O)NC3=O)C4=O)cc21 (stereo partly drawn) [Compound 31, 4-((3-(dimethylamino)-2,3-dihydro-1H-inden-5-yl)amino)-2-((S)-3-methyl-2,6-dioxopiperidin-3-yl)isoindoline-1,3-dione]	< 7.00	10 to 100 nM	33 to 66%		
Cc1cc(-c2cc3c(cc2Nc2cccc4c2C(=O)N([C@H]2CCC(=O)NC2=O)C4=O)N(C)C(=O)CC3)ccn1 [Compound 32, (S)-2-(2,6-dioxopiperidin-3-yl)-4-((1-methyl-6-(2-methylpyridin-4-yl)-2-oxo-1,2,3,4-tetrahydroquinolin-7-yl)amino)isoindoline-1,3-dione]			66 to 100%	30 to 100 nM	> 8.00
Cc1csc(-c2cc3c(cc2Nc2cccc4c2C(=O)N(C2CCC(=O)NC2=O)C4=O)N(C)C(=O)CC3)n1 (stereo not drawn) [Compound 39, 2-(2,6-dioxopiperidin-3-yl)-4-((1-methyl-6-(4-methylthiazol-2-yl)-2-oxo-1,2,3,4-tetrahydroquinolin-7-yl)amino)isoindoline-1,3-dione]		10 to 100 nM	33 to 66%	30 to 100 nM	
Cc1cc(-c2cc3c(cc2Nc2cccc4c2C(=O)N([C@H]2CCC(=O)NC2=O)C4=O)n(C)c(=O)n3C)cc(C)n1 [Compound 40, (S)-4-((6-(2,6-dimethylpyridin-4-yl)-1,3-dimethyl-2-oxo-2,3-dihydro-1H-benzo[d]imidazol-5-yl)amino)-2-(2,6-dioxopiperidin-3-yl)isoindoline-1,3-dione]	> 7.52		66 to 100%		> 8.00
Cc1cc(-c2cc3c(cc2Nc2cccc4c2C(=O)N([C@H]2CCC(=O)NC2=O)C4=O)n(C)c(=O)n3C)ccn1 [Compound 41, (S)-4-((1,3-dimethyl-6-(2-methylpyridin-4-yl)-2-oxo-2,3-dihydro-1H-benzo[d]imidazol-5-yl)amino)-2-(2,6-dioxopiperidin-3-yl)isoindoline-1,3-dione]	> 7.52		66 to 100%		> 8.00
Cc1cc(-c2cc3c(cnn3C)cc2Nc2cccc3c2C(=O)N([C@H]2CCC(=O)NC2=O)C3=O)ccn1 [Compound 42, (S)-2-(2,6-dioxopiperidin-3-yl)-4-((1-methyl-6-(2-methylpyridin-4-yl)-1H-indazol-5-yl)amino)isoindoline-1,3-dione]		> 100 nM	33 to 66%	30 to 100 nM	
Cc1cc(-c2cc3c(cc2Nc2cccc4c2C(=O)N(C2CCC(=O)NC2=O)C4=O)N(C)C(=O)CC3)ccn1 (stereo not drawn) [Compound 43, 2-(2,6-dioxopiperidin-3-yl)-4-((1-methyl-6-(2-methylpyridin-4-yl)-2-oxo-1,2,3,4-tetrahydroquinolin-7-yl)amino)isoindoline-1,3-dione]	> 7.52		66 to 100%		> 8.00
Cc1cc(-c2cc3c(cnn3[C@@H]3CCOC3)cc2Nc2cccc3c2C(=O)N([C@H]2CCC(=O)NC2=O)C3=O)ccn1 [Compound 44, 2-((S)-2,6-dioxopiperidin-3-yl)-4-((6-(2-methylpyridin-4-yl)-1-((R)-tetrahydrofuran-3-yl)-1H-indazol-5-yl)amino)isoindoline-1,3-dione]		10 to 100 nM	66 to 100%	30 to 100 nM	
Cc1nccc(-c2cc3c(cc2Nc2cccc4c2C(=O)N(C2CCC(=O)NC2=O)C4=O)N(C)C(=O)CC3)c1F (stereo not drawn) [Compound 45, 2-(2,6-dioxopiperidin-3-yl)-4-((6-(3-fluoro-2-methylpyridin-4-yl)-1-methyl-2-oxo-1,2,3,4-tetrahydroquinolin-7-yl)amino)isoindoline-1,3-dione]	> 7.52		66 to 100%		> 8.00
Cc1cc(-c2cc3c(cc2Nc2cccc4c2C(=O)N(C2CCC(=O)NC2=O)C4=O)N(C)C(=O)CC3)c(F)cn1 (stereo not drawn) [Compound 46, 2-(2,6-dioxopiperidin-3-yl)-4-((6-(5-fluoro-2-methylpyridin-4-yl)-1-methyl-2-oxo-1,2,3,4-tetrahydroquinolin-7-yl)amino)isoindoline-1,3-dione]	> 7.52		66 to 100%		> 8.00
Cc1nccc(-c2cc3c(cc2Nc2cccc4c2C(=O)N(C2CCC(=O)NC2=O)C4=O)N(C)C(=O)CC3)c1Cl (stereo not drawn) [Compound 47, 4-((6-(3-chloro-2-methylpyridin-4-yl)-1-methyl-2-oxo-1,2,3,4-tetrahydroquinolin-7-yl)amino)-2-(2,6-dioxopiperidin-3-yl)isoindoline-1,3-dione]	> 7.52		66 to 100%		> 8.00
Cc1cc(-c2cc3c(cc2Nc2cccc4c2C(=O)N(C2CCC(=O)NC2=O)C4=O)N(C)C(=O)CC3)cc(C)n1 (stereo not drawn) [Compound 48, 4-((6-(2,6-dimethylpyridin-4-yl)-1-methyl-2-oxo-1,2,3,4-tetrahydroquinolin-7-yl)amino)-2-(2,6-dioxopiperidin-3-yl)isoindoline-1,3-dione]	> 7.52		66 to 100%		> 8.00
Cc1cc(-c2cc3c(cnn3[C@@H]3CCOC3)cc2Nc2cccc3c2C(=O)N([C@@H]2CCC(=O)NC2=O)C3=O)ccn1 [Compound 52, 2-((R)-2,6-dioxopiperidin-3-yl)-4-((6-(2-methylpyridin-4-yl)-1-((R)-tetrahydrofuran-3-yl)-1H-indazol-5-yl)amino)isoindoline-1,3-dione]	< 7.00		66 to 100%		> 8.00
